# Measured values published in article PMC7193943 (European journal of medicinal chemistry, 2019).
# Tests used:
# [1] = system: P-glycoprotein efflux transporter; conditions: Caco-2 colorectal adenocarcinoma cells; cited from earlier work
# [2] = mice, 24 h after oral administration; cited from earlier work
# [3] = system: ALK-positive H2228 and ALK-negative H441 cells; experiment: Live cell tracer uptake assay; assay type: cell-based, human; conditions: after 30 min of incubation
# [4] = Solubility in aqueous media; assay type: physicochemical
# H441 cells = experiment: Cytotoxicity assay; assay type: cell-based, human; conditions: 72 h
structure (smiles),measurement,setting,value
"CCc1cc2c(cc1N1CCC(N3CCOCC3)CC1)C(C)(C)c1[nH]c3cc(C#N)ccc3c1C2=O [Alectinib, 9-Ethyl-6,6-dimethyl-8-[4-(morpholin-4-yl)piperidin-1-yl]-11-oxo-6,11-dihydro-5H-benzo[b]carbazole-3-carbonitrile]",transport by the P-glycoprotein efflux transporter,[1],not transported
"Cc1cc(Nc2ncc(Cl)c(Nc3ccccc3S(=O)(=O)C(C)C)n2)c(OC(C)C)cc1C1CCNCC1 [Ceritinib, 5-Chloro-N2-(2-isopropoxy-5-methyl-4-(piperidin-4-yl)phenyl)-N4-(2-(isopropylsulfonyl)phenyl)pyrimidine-2,4-diamine, reference compound]",IC50,H2228 cells,2900 nM
same,drug found in the brain,[2],0.4%
Cc1cc(Nc2ncc(Cl)c(Nc3ccccc3S(=O)(=O)C(C)C)n2)c(OC(C)C)cc1C1CCN(CCF)CC1 [[^18F]9],"cell-associated radioactivity, H2228 vs H441",[3],higher uptake in the ALK-positive H2228 cells
same,solubility in water or saline,[4]; water or saline,insoluble
"CCc1cc2c(cc1N1CCC(N3CCOCC3)CC1)C(C)(C)c1c(c3ccc(C#N)cc3n1CCF)C2=O [Compound 4, 9-Ethyl-6,6-dimethyl-8-[4-(morpholin-4-yl)piperidin-1-yl]-11-oxo-6,11-dihydro-5(2-fluoroethyl)-benzo[b]carbazole-3-carbonitrile]",solubility in saline or PBS solutions,[4],not soluble
same,effect on ALK-negative H441 cells (cytotoxicity),H441 cells,no substantial effect
"C[C@@H](Oc1cc(-c2cnn(C3CCN(CCF)CC3)c2)cnc1N)c1c(Cl)ccc(F)c1Cl [Compound 1, 3-((R)-1-(2,6-dichloro-3-fluorophenyl)ethoxy)-5-(1-(fluoroethylpiperidin-4-yl)-1H-pyrazol-4-yl)pyridin-2-amine]",fold loss of potency versus parent drug,H2228 cells,less than 3 fold
same,solubility in saline or PBS solutions,[4],not soluble
"Cc1cc(Nc2ncc(Cl)c(Nc3ccccc3S(=O)(=O)C(C)C)n2)c(OC(C)C)cc1C1CCN(CCF)CC1 [Compound 9, 5-Chloro-N2–(2-isoprpoxy-5-methyl-4-(1-fluoroethylpiperidin-4-yl)phenyl)-N4-[2-(propane-2-sulfonyl)phenyl]pyrimidine-2,4-diamine]",fold loss of potency versus parent drug,H2228 cells,~10 fold
same,solubility in saline or PBS solutions,[4],not soluble
